Experimental data: publication PMC10377643, “Exploration of Bis-Cinnamido-Polyamines as Intrinsic Antimicrobial Agents and Antibiotic Enhancers” (Biomolecules, 2023)

How the values were obtained:
E. coli ATCC 25922 [1] = assay: Erythromycin enhancement against E. coli; type: cell-based, Escherichia coli; conditions: erythromycin fixed at 10.9 µM (8 µg/mL)
Procedure: (§1) Antibiotic enhancer concentrations were determined using previously reported protocols.

human red blood cells = assay: Hemolytic assay; type: cell-based; conditions: mean (n = 2)
Procedure: Hemolysis assays were conducted using the protocols previously reported.

P. aeruginosa ATCC 27853 [2] = assay: Doxycycline enhancement against P. aeruginosa; type: cell-based, Pseudomonas aeruginosa; conditions: doxycycline fixed at 4.5 µM
Procedure: as §1
We then evaluated the set of analogues for the ability to enhance the antibiotic activity of doxycycline against P. aeruginosa ATCC 27853 and of erythromycin against E. coli ATCC 25922 (Table 2). In the case of doxycycline, a fixed concentration of the antibiotic of 4.5 μM, which is twenty-fold lower than the intrinsic MIC 90 μM against this organism, was used. Each of the test compounds was then evaluated at a range of concentrations varying from 3.125 to 50–100 μM, with the upper concentration dependent upon the compounds intrinsic MIC towards P. aeruginosa (Table 1). […] While the observation of cytotoxicity/hemolytic properties of 16a–c, 14f and 13f reduces our interest in these analogues, analogues 13b and 13d were identified as non-toxic and strong enhancers of the action of doxycycline towards P. aeruginosa.

MRSA ATCC 43300 = assay: Antimicrobial MIC, MRSA (CO-ADD); type: cell-based, methicillin-resistant S. aureus; conditions: Staphylococcus aureus; MRSA ATCC 43300; mean (n = 2); read-out: MIC MRSA
Procedure: (§2) The susceptibility of bacterial strains S. aureus (ATCC 25923), E. coli (ATCC 25922) and P. aeruginosa (ATCC 27853) to antibiotics and compounds was determined using protocols reported previously. Additional antimicrobial evaluation against MRSA (ATCC 43300), Klebsiella pneumoniae (ATCC 700603), Acinetobacter baumannii (ATCC 19606), Candida albicans (ATCC 90028) and Cryptococcus neoformans (ATCC 208821) was undertaken at the Community for Open Antimicrobial Drug Discovery at The University of Queensland (Australia) according to their standard protocols reported previously.

Cytotoxicity assay = type: cell-based, human; conditions: human, HEK293 human embryonic kidney cells, mean (n = 2), read-out: Cytotoxicity (IC50), concentration of compound at 50% cytotoxicity
Procedure: Cytotoxicity assays were conducted using the protocols previously reported.

S. aureus ATCC 25923 = assay: Antimicrobial MIC, S. aureus; type: cell-based; conditions: Staphylococcus aureus, ATCC25923, mean (n = 3)
Procedure: as §2

[3] = test system: C. neoformans ATCC 208821; assay: Antifungal MIC, C. neoformans (CO-ADD); type: cell-based; conditions: Cryptococcus neoformans, ATCC208821, mean (n = 2)
Procedure: as §2

C. albicans ATCC 90028 = assay: Antifungal MIC, C. albicans (CO-ADD); type: cell-based; conditions: Candida albicans, ATCC90028, mean (n = 2)
Procedure: as §2

E. coli ATCC 25922 [4] = assay: Antimicrobial MIC, E. coli; type: cell-based, Escherichia coli; conditions: Escherichia coli, ATCC25922, E. coli ATCC 25922; mean (n = 3)
Procedure: as §2

P. aeruginosa ATCC 27853 [5] = assay: Antimicrobial MIC, P. aeruginosa; type: cell-based; conditions: Pseudomonas aeruginosa, ATCC27853, mean (n = 3)
Procedure: as §2

## O=C(C=Cc1ccccc1)NCCCNCCCCCCCNCCCNC(=O)C=Cc1ccccc1.O=C(O)C(F)(F)F.O=C(O)C(F)(F)F [Compound 13c, N^1,N^7-Bis(3-cinnamamidopropyl)heptane-1,7-diaminium 2,2,2-trifluoroacetate]
E. coli ATCC 25922 [1]
  Eryth/E. c: concentration required to restore erythromycin activity: 136 µM
  Eryth/E. c: fold change (intrinsic MIC of test compound / combination MIC): > 2 fold
Human red blood cells
  Hemolysis (HC10), concentration of compound at 10% hemolytic activity: >43.7 µM
P. aeruginosa ATCC 27853 [2]
  Dox/P. a: concentration required to restore doxycycline activity: 68 µM
  Dox/P. a: fold change (intrinsic MIC of test compound / combination MIC): > 4 fold
MRSA ATCC 43300
  MIC: > 43.7 µM
Cytotoxicity assay
  IC50: > 43.7 µM
S. aureus ATCC 25923
  MIC: > 273 µM
[3]
  MIC: > 43.7 µM
C. albicans ATCC 90028
  MIC: > 43.7 µM
E. coli ATCC 25922 [4]
  MIC: > 273 µM
P. aeruginosa ATCC 27853 [5]
  MIC: > 273 µM

## O=C(C=Cc1ccccc1)NCCCNCCCCCCCCCCNCCCNC(=O)C=Cc1ccccc1.O=C(O)C(F)(F)F.O=C(O)C(F)(F)F [Compound 13e, N^1,N^10-Bis(3-cinnamamidopropyl)decane-1,10-diaminium 2,2,2-trifluoroacetate]
E. coli ATCC 25922 [1]
  Eryth/E. c: concentration required to restore erythromycin activity: 64.5 µM
  Eryth/E. c: fold change (intrinsic MIC of test compound / combination MIC): 10 fold
Human red blood cells
  Hemolysis (HC10), concentration of compound at 10% hemolytic activity: 37.6 µM
P. aeruginosa ATCC 27853 [2]
  Dox/P. a: concentration required to restore doxycycline activity: 645 µM
  Dox/P. a: fold change (intrinsic MIC of test compound / combination MIC): 1 fold
MRSA ATCC 43300
  MIC: 20.6 µM
Cytotoxicity assay
  IC50: 24.3 µM
S. aureus ATCC 25923
  MIC: 64.5 µM
[3]
  MIC: 41.3 µM
C. albicans ATCC 90028
  MIC: > 41.3 µM
E. coli ATCC 25922 [4]
  MIC: 645 µM
P. aeruginosa ATCC 27853 [5]
  MIC: 645 µM

## O=C(C=Cc1ccccc1)NCCCNCCCCCCCCCCCCNCCCNC(=O)C=Cc1ccccc1.O=C(O)C(F)(F)F.O=C(O)C(F)(F)F [Compound 13f, N^1,N^12-Bis(3-cinnamamidopropyl)dodecane-1,12-diaminium 2,2,2-trifluoroacetate]
E. coli ATCC 25922 [1]
  Eryth/E. c: concentration required to restore erythromycin activity: 3.125 µM
  Eryth/E. c: fold change (intrinsic MIC of test compound / combination MIC): 0.5 fold
Human red blood cells
  Hemolysis (HC10), concentration of compound at 10% hemolytic activity: >39.9 µM
P. aeruginosa ATCC 27853 [2]
  Dox/P. a: concentration required to restore doxycycline activity: 6.25 µM
  Dox/P. a: fold change (intrinsic MIC of test compound / combination MIC): 8 fold
MRSA ATCC 43300
  MIC: ≤ 0.31 µM
Cytotoxicity assay
  IC50: 19.9 µM
S. aureus ATCC 25923
  MIC: 3.12 µM
[3]
  MIC: ≤ 0.31 µM
C. albicans ATCC 90028
  MIC: > 39.9 µM
E. coli ATCC 25922 [4]
  MIC: 1.56 µM
P. aeruginosa ATCC 27853 [5]
  MIC: 50 µM

## COc1ccc(/C=C/C(=O)NCCCNCCCCCCNCCCNC(=O)/C=C/c2ccc(OC)cc2)cc1.O=C(O)C(F)(F)F.O=C(O)C(F)(F)F [Compound 14b, N^1,N^6-Bis(3-((E)-3-(4-methoxyphenyl)acrylamido)propyl)hexane-1,6-diaminium 2,2,2-trifluoroacetate]
E. coli ATCC 25922 [1]
  Eryth/E. c: concentration required to restore erythromycin activity: 256 µM
  Eryth/E. c: fold change (intrinsic MIC of test compound / combination MIC): > 1 fold
Human red blood cells
  Hemolysis (HC10), concentration of compound at 10% hemolytic activity: >41.1 µM
P. aeruginosa ATCC 27853 [2]
  Dox/P. a: concentration required to restore doxycycline activity: 64 µM
  Dox/P. a: fold change (intrinsic MIC of test compound / combination MIC): > 4 fold
MRSA ATCC 43300
  MIC: 41.1 µM
Cytotoxicity assay
  IC50: > 41.1 µM
S. aureus ATCC 25923
  MIC: 64.2 µM
[3]
  MIC: ≤ 0.32 µM
C. albicans ATCC 90028
  MIC: > 41.1 µM
E. coli ATCC 25922 [4]
  MIC: > 257 µM
P. aeruginosa ATCC 27853 [5]
  MIC: > 257 µM

## COc1ccc(/C=C/C(=O)NCCCNCCCCCCNCCCNC(=O)/C=C/c2ccc(OC)c(Br)c2)cc1Br.O=C(O)C(F)(F)F.O=C(O)C(F)(F)F [Compound 15b, N^1,N^6-Bis(3-((E)-3-(3-bromo-4-methoxyphenyl)acrylamido)propyl)hexane-1,6-diaminium 2,2,2-trifluoroacetate]
E. coli ATCC 25922 [1]
  Eryth/E. c: concentration required to restore erythromycin activity: 26.7 µM
  Eryth/E. c: fold change (intrinsic MIC of test compound / combination MIC): 2 fold
Human red blood cells
  Hemolysis (HC10), concentration of compound at 10% hemolytic activity: 0.99 µM
P. aeruginosa ATCC 27853 [2]
  Dox/P. a: concentration required to restore doxycycline activity: 53.4 µM
  Dox/P. a: fold change (intrinsic MIC of test compound / combination MIC): > 4 fold
MRSA ATCC 43300
  MIC: 2.1 µM
Cytotoxicity assay
  IC50: > 34.2 µM
S. aureus ATCC 25923
  MIC: 6.67 µM
[3]
  MIC: ≤ 0.27 µM
C. albicans ATCC 90028
  MIC: > 34.1 µM
E. coli ATCC 25922 [4]
  MIC: 53 µM
P. aeruginosa ATCC 27853 [5]
  MIC: > 214 µM

## COc1ccc(/C=C/C(=O)NCCCNCCCCCCCCNCCCNC(=O)/C=C/c2ccc(OC)c(Br)c2)cc1Br.O=C(O)C(F)(F)F.O=C(O)C(F)(F)F [Compound 15d, N^1,N^8-Bis(3-((E)-3-(3-bromo-4-methoxyphenyl)acrylamido)propyl)octane-1,8-diaminium 2,2,2-trifluoroacetate]
E. coli ATCC 25922 [1]
  Eryth/E. c: concentration required to restore erythromycin activity: 25.9 µM
  Eryth/E. c: fold change (intrinsic MIC of test compound / combination MIC): 1 fold
Human red blood cells
  Hemolysis (HC10), concentration of compound at 10% hemolytic activity: 0.52 µM
P. aeruginosa ATCC 27853 [2]
  Dox/P. a: concentration required to restore doxycycline activity: 51.8 µM
  Dox/P. a: fold change (intrinsic MIC of test compound / combination MIC): > 4 fold
MRSA ATCC 43300
  MIC: ≤ 0.26 µM
Cytotoxicity assay
  IC50: 19.7 µM
S. aureus ATCC 25923
  MIC: 6.48 µM
[3]
  MIC: ≤ 0.26 µM
C. albicans ATCC 90028
  MIC: 33.2 µM
E. coli ATCC 25922 [4]
  MIC: 25.9 µM
P. aeruginosa ATCC 27853 [5]
  MIC: > 207 µM

## COc1ccc(/C=C/C(=O)NCCCNCCCCCCCCCCNCCCNC(=O)/C=C/c2ccc(OC)c(Br)c2)cc1Br.O=C(O)C(F)(F)F.O=C(O)C(F)(F)F [Compound 15e, N^1,N^10-Bis(3-((E)-3-(3-bromo-4-methoxyphenyl)acrylamido)propyl)decane-1,10-diaminium 2,2,2-trifluoroacetate]
Human red blood cells
  Hemolysis (HC10), concentration of compound at 10% hemolytic activity: 24.1 µM
P. aeruginosa ATCC 27853 [2]
  Dox/P. a: concentration required to restore doxycycline activity: 50.4 µM
  Dox/P. a: fold change (intrinsic MIC of test compound / combination MIC): 1 fold
MRSA ATCC 43300
  MIC: ≤ 0.25 µM
Cytotoxicity assay
  IC50: > 32.2 µM
S. aureus ATCC 25923
  MIC: 1.57 µM
[3]
  MIC: 1 µM
C. albicans ATCC 90028
  MIC: 32.2 µM
E. coli ATCC 25922 [4]
  MIC: 25.2 µM
P. aeruginosa ATCC 27853 [5]
  MIC: 50.4 µM

## COc1c(Br)cc(/C=C/C(=O)NCCCNCCCCCCNCCCNC(=O)/C=C/c2cc(Br)c(OC)c(Br)c2)cc1Br.O=C(O)C(F)(F)F.O=C(O)C(F)(F)F [Compound 16b, N^1,N^6-Bis(3-((E)-3-(3,5-dibromo-4-methoxyphenyl)acrylamido)propyl)hexane-1,6-diaminium 2,2,2-trifluoroacetate]
E. coli ATCC 25922 [1]
  Eryth/E. c: concentration required to restore erythromycin activity: 11.4 µM
  Eryth/E. c: fold change (intrinsic MIC of test compound / combination MIC): 1 fold
Human red blood cells
  Hemolysis (HC10), concentration of compound at 10% hemolytic activity: 0.91 µM
P. aeruginosa ATCC 27853 [2]
  Dox/P. a: fold change (intrinsic MIC of test compound / combination MIC): > 16 fold
MRSA ATCC 43300
  MIC: ≤ 0.23 µM
Cytotoxicity assay
  IC50: 15.6 µM
S. aureus ATCC 25923
  MIC: 5.71 µM
[3]
  MIC: ≤ 0.23 µM
C. albicans ATCC 90028
  MIC: 29.2 µM
E. coli ATCC 25922 [4]
  MIC: 11.4 µM
P. aeruginosa ATCC 27853 [5]
  MIC: > 183 µM

## COc1c(Br)cc(/C=C/C(=O)NCCCNCCCCCCCCCCNCCCNC(=O)/C=C/c2cc(Br)c(OC)c(Br)c2)cc1Br.O=C(O)C(F)(F)F.O=C(O)C(F)(F)F [Compound 16e, N^1,N^10-Bis(3-((E)-3-(3,5-dibromo-4-methoxyphenyl)acrylamido)propyl)decane-1,10-diaminium 2,2,2-trifluoroacetate]
Human red blood cells
  Hemolysis (HC10), concentration of compound at 10% hemolytic activity: 13.6 µM
P. aeruginosa ATCC 27853 [2]
  Dox/P. a: concentration required to restore doxycycline activity: 43.5 µM
  Dox/P. a: fold change (intrinsic MIC of test compound / combination MIC): 2 fold
MRSA ATCC 43300
  MIC: ≤ 0.22 µM
Cytotoxicity assay
  IC50: 2 µM
S. aureus ATCC 25923
  MIC: 1.36 µM
[3]
  MIC: ≤ 0.22 µM
C. albicans ATCC 90028
  MIC: 27.8 µM
E. coli ATCC 25922 [4]
  MIC: 43.5 µM
P. aeruginosa ATCC 27853 [5]
  MIC: 87 µM
